According to patent US10981932B2, “Macrocyclic indole derivatives” (Bayer Aktiengesellschaft, priority 2016, dated 2021):
Read-outs that look alike come from different tables or passages of the source.

Tests used:
MCL-1 = MCL-1 (Homo sapiens, UniProt Q07820); assay: Protein-protein interaction assay MCL-1/Noxa BH3 peptide (MCL-1 assay), TR-FRET; assay type: binding; settings: MBP-MCL-1 / Noxa BH3-derived peptide, median
Method in brief: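 IC50 came from a 4-parameter fit of the normalized 665/620 nm TR-FRET ratio (anti-MBP Eu-cryptate/streptavidin-XL665). Compounds (0.1 nM–20 μM, duplicates) were preincubated 10 min at 22 °C with 1 nM MBP-MCL-1 in pH 7 Tris/NaCl/KF buffer, then read after 1 h at 22 °C plus overnight at 4 °C.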

SUDHL5 [1] = assay: Induction of caspase-3/7 activity (Caspase-Glo 3/7), SUDHL5; assay type: cell-based; settings: Homo sapiens, SU-DHL-5, 3 h, caspase-3/7 induction, SUDHL5 cells, 3 h treatment; median
Method in brief: (§1)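 DLBCL lines SUDHL5 and SUDHL10 treated with compounds for 3 h at 37 °C; caspase-3/7 activity read by Caspase-Glo 3/7 luminescence. Medium-only background subtracted; EC50 fitted with bottom fixed at 1 and top fixed at the reference compound's maximal induction.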

SUDHL10 [2] = assay: Induction of caspase-3/7 activity (Caspase-Glo 3/7), SUDHL10; assay type: cell-based; settings: Homo sapiens, SU-DHL10, 3 h, caspase-3/7 induction, SUDHL10 cells, 3 h treatment; median
Method in brief: as §1

SUDHL5 [3] = assay: Anti-proliferative effect (CellTiter-Glo, 72 h), SUDHL5; assay type: cell-based; settings: Homo sapiens, SU-DHL-5, 72 h, SUDHL5 cells, antiproliferation, 72 h incubation, median, read-out: Antiproli SUDHL5 [M] (median)
Method in brief: (§2)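 Cells plated and incubated with compounds for 72 h at 37 °C, with a parallel day 0 reference plate for time-zero signal. Viability read by CellTiter-Glo luminescence after 10 min, measured identically on the day 0 and 72 h plates.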

SUDHL10 [4] = assay: Anti-proliferative effect (CellTiter-Glo, 72 h), SUDHL10; assay type: cell-based; settings: Homo sapiens, SU-DHL10, 72 h, SUDHL10 cells, antiproliferation, 72 h incubation, median, read-out: Antiproli SUDHL10 [M] (median)
Experimental: Assessment of the Anti-Proliferative Effect of Compounds in Different Cell Lines
The impact of compounds on the proliferation of different cell lines was assessed using the CellTiter-Glo® Luminescent Cell Viability reagent from Promega (G7573). Of note, SUDHL10 and SUDHL5 (DLBCL), NCI-H929 (Multiple Myeloma), A2780 (ovarian carcinoma) as well as MV-4-11(AML) cells are sensitive to MCL-1 inhibition.
In parallel, cells were plated in a reference (day 0) plate for time zero determination.
Rim wells were excluded. The cells were incubated for 72 h hours in a humidified incubator at 37° C. The day 0 plate was measured by adding 30 μl/well of CTG solution (CellTiter-Glo® Luminescent Cell Viability reagent, Promega G7573) to time zero wells in the reference plate followed by a 10 minutes incubation and luminescence reading at 0.1 ms, using the PHERAstar FS microplate reader (BMG Labtech).
After 72 h incubation, the treated plates were measured in the same way as the day 0 plate mentioned above.

A2780 = assay: Anti-proliferative effect (CellTiter-Glo, 72 h), A2780; assay type: cell-based; settings: A2780 cells, median, read-out: IC50 antiproliferation assay A2780 [M] (median)
Method in brief: as §2

SUDHL5 [5] = assay: Induction of cytotoxicity (CellTiter-Glo, 5 h), SUDHL5; settings: Homo sapiens, SU-DHL-5, 5 h, read-out: Cytotox SUDHL5 [M] (median), SUDHL5 cells, cytotoxicity induction, CellTiter-Glo, 5 h incubation, median
SUDHL10 [6] = assay: Induction of cytotoxicity (CellTiter-Glo, 5 h), SUDHL10; settings: Homo sapiens, SU-DHL10, 5 h, read-out: Cytotox SUDHL10 [M] (median), SUDHL10 cells, cytotoxicity induction, CellTiter-Glo, 5 h incubation, median

Sequence of MCL-1 (Q07820 whole entry): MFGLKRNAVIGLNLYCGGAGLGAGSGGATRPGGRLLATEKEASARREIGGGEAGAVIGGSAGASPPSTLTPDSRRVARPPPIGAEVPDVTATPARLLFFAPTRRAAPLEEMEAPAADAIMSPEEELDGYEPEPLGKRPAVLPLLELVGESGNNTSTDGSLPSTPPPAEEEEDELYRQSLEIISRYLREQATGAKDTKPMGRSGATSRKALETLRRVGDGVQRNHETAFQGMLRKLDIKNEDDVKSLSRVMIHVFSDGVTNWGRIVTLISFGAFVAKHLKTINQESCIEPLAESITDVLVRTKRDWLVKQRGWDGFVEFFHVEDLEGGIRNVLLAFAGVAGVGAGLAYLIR

Row | SMILES | IC50 (MCL-1) [µM] | EC50 (SUDHL5 [1]) [µM] | EC50 (SUDHL10 [2]) [µM] | IC50 (SUDHL5 [3]) [M] | IC50 (SUDHL10 [4]) [M] | IC50 (A2780; Homo sapiens, A2780, 72 h) [M] | IC50 (A2780) [M] | IC50 (SUDHL5 [5]) [M] | IC50 (SUDHL10 [6]) [M]
1 | Cn1nc(CN2CC(F)(F)C2)c2c1COCCCCn1c(C(=O)O)c(CCCOc3cccc4ccccc34)c3cccc-2c31 (racemic) [Example 180, (rac)-3-[(3,3-difluoroazetidin-1-yl)methyl]-1-methyl-7-[3-(naphthalen-1-yloxy)propyl]-1,10,11,12,13,15-hexahydropyrazolo[4′,3′:9,10][1,6]oxazacycloundecino[8,7,6-hi]indole-8-carboxylic Acid] | 0.0177 | 14.5 | 28.2 | 7.77e-06 | 8.97e-06 | 2.36e-05 |  | 1.1e-05 | 3.11e-05
2 | Cn1nc2c(c1C(F)(F)F)-c1cccc3c(CCCOc4cccc5ccccc45)c(C(=O)O)n(c13)CCCCOC2 (racemic) [Example 186, (rac)-2-methyl-7-[3-(naphthalen-1-yloxy)propyl]-3-(trifluoromethyl)-2,10,11,12,13,15-hexahydropyrazolo[4′3′:9,10][1,6]oxazacycloundecino[8,7,6,6-hi]indole-8-carboxylic Acid] | 0.0157 | 9.85 | 18.6 | 8.69e-06 | 1.4e-05 | > 3.3e-05 | 2.28e-05 | 1.14e-05 | 2.61e-05
3 | Cn1nc(COC2CC2)c2c1COCCCCn1c(C(=O)O)c(CCCOc3cccc4ccccc34)c3cccc-2c31 (racemic) [Example 213, (rac)-3-[(cyclopropyloxy)methyl]-1-methyl-7-[3-(naphthalen-1-yloxy)propyl]-1,10,11,12,13,15-hexahydropyrazolo[4′3′:9,10][1,6]oxazacycloundecino[8,7,6,6-hi]indole-8-carboxylic Acid] | 0.0134 | > 33 | > 33 | 2.49e-06 | 5.12e-06 | 2.91e-05 |  | > 3.3e-05 | > 3.3e-05
4 | Cn1nc(CC(F)(F)F)c2c1COCCCCn1c(C(=O)O)c(CCCOc3cccc4ccccc34)c3cccc-2c31 (racemic) [Example 219, (rac)-1-methyl-7-[3-(naphthalen-1-yloxy)propyl]-3-(2,2,2-trifluoroethyl)-1,10,11,12,13,15-hexahydropyrazolo[4′,3′:9,10][1,6]oxazacycloundecino[8,7,6-hi]indole-8-carboxylic Acid] | 0.014 | 12.8 | > 33 | 9.95e-06 | 1.36e-05 | > 3.3e-05 |  | 9.71e-06 | 2.47e-05
5 | Cn1ccnc1COCc1nn(C)c2c1-c1cccc3c(CCCOc4cccc5ccccc45)c(C(=O)O)n(c13)CCCCOC2 (racemic) [Example 231, (rac)-1-methyl-3-{[(1-methyl-1H-imidazol-2-yl)methoxyl]methyl}-7-[3-(naphthalen-1-yloxy)propyl]-1,10,11,12,13,15-hexahydropyrazolo[4′,3′:9,10][1,6]oxazacycloundecino[8,7,6-hi]indole-8-carboxylic Acid] | 0.0262 | 17.3 | 16.1 | 8.1e-06 | 1.14e-05 | > 3.3e-05 |  | 1.33e-05 | 1.6e-05

Stronger by IC50 (MCL-1), values ahead:

Row | IC50 (MCL-1) [µM] | EC50 (SUDHL5 [1]) [µM] | EC50 (SUDHL10 [2]) [µM] | IC50 (SUDHL5 [3]) [M] | IC50 (SUDHL10 [4]) [M] | IC50 (A2780; Homo sapiens, A2780, 72 h) [M] | IC50 (A2780) [M] | SMILES | IC50 (SUDHL5 [5]) [M] | IC50 (SUDHL10 [6]) [M]
6 | 0.00225 | 1.46 | 5.89 | 2.43e-06 | 4.14e-06 | > 3.3e-05 | 2.39e-05 | COCc1nn(C)c2c1-c1cccc3c(CCCOc4cccc5ccccc45)c(C(=O)O)n(c13)CCCCN(C)C2 (racemic) [Example 183, (rac)-3-(methoxymethyl)-1,14-dimethyl-7-[3-(naphthalen-1-yloxy)propyl]-10,11,12,13,14,15-hexahydro-1H-pyrazolo[3′,4′:8,9][1,6]diazacycloundecino[10,11,1-hi]indole-8-carboxylic Acid] | 1.88e-06 | 5.55e-06
7 | 0.00261 | 3.71 | 13.3 | 7.27e-06 | 1.41e-05 | 2.17e-05 | > 3.3e-05 | CCCc1nn(C)c2c1-c1c(C)ccc3c(CCCOc4cccc5ccccc45)c(C(=O)O)n(c13)CCCCOC2 (racemic) [Example 187, (rac)-1,4-dimethyl-7-[3-(naphthalen-1-yloxy)propyl]-3-propyl-1,10,11,12,13,15-hexahydropyrazolo[4′,3′:9,10][1,6]oxazacycloundecino[8,7,6-hi]indole-8-carboxylic Acid] | 3.85e-06 | 1.07e-05
8 | 0.00546 | 3.13 | 7.26 | 2.35e-06 | 5.34e-06 | 2.02e-05 |  | Cc1c2c(nn1C)CCCCCCn1c(C(=O)O)c(CCCOc3cccc4ccccc34)c3cccc-2c31 (racemic) [Example 190, (rac)-2,3-dimethyl-7-[3-(1-naphthyloxy)propyl]-10,11,12,13,14,15-hexahydro-2H-pyrazolo[4′,3′:4,5]azacycloundecino[3,2,1-hi]indole-8-carboxylic Acid] | 3.85e-06 | 9.19e-06
9 | 0.00233 | 2.47 | 8.35 | 4.45e-06 | 7.14e-06 | 1.9e-05 |  | CCCc1nn(C)c2c1-c1c(C)ccc3c(CCCOc4cccc5ccccc45)c(C(=O)O)n(c13)CCCN(C)C2 (racemic) [Example 193, (rac)-7,9,12-trimethyl-1-[3-(naphthalen-1-yloxy)propyl]-1-propyl-4,5,6,7,8,9-hexahydropyrazolo[3′,4′:7,8][1,5]diazecino[9,10,1-hi]indole-2-carboxylic Acid] | 2.3e-06 | 7.65e-06
10 | 0.0028 | 1.72 | 6.94 | 3.35e-06 | 7.48e-06 | 2.25e-05 |  | CCc1nn(CCN2CCOCC2)c2c1-c1cccc3c(CCCOc4cccc5ccccc45)c(C(=O)O)n(c13)CCCCOC2 (racemic) [Example 198, (rac)-3-ethyl-1-[2-(morpholin-4-yl)ethyl]-7-[3-(naphthalen-1-yloxy)propyl]-1,10,11,12,13,15-hexahydropyrazolo[4′,3′:9,10][1,6]oxazacycloundecino[8,7,6-hi]indole-8-carboxylic Acid] | 2.05e-06 | 6.77e-06
11 | 0.00375 | 1.73 | 6.09 | 4.17e-06 | 5.15e-06 | 1.78e-05 |  | CCc1c2c(nn1CCN1CCOCC1)COCCCCn1c(C(=O)O)c(CCCOc3cccc4ccccc34)c3ccc(C)c-2c31 (racemic) [Example 204, (rac)-3-ethyl-4-methyl-2-[2-(morpholin-4-yl)ethyl]-7-[3-(naphthalen-1-yloxy)propyl]-2,10,11,12,13,15-hexahydropyrazolo[4′,3′:9,10][1,6]oxazacycloundecino[8,7,6-hi]indole-8-carboxylic Acid] | 1.9e-06 | 5.63e-06
12 | 0.00681 | 4.85 | 11.4 | 5.28e-06 | 7.76e-06 | 2.47e-05 |  | COc1c2c(nn1C)COCCCCn1c(C(=O)O)c(CCCOc3cccc4ccccc34)c3cccc-2c31 (racemic) [Example 207, (rac)-3-methoxy-2-methyl-7-[3-(naphthalen-1-yloxy)propyl]-2,10,11,12,13,15-hexahydropyrazolo[4′,3′:9,10][1,6]oxazacycloundecino[8,7,6-hi]indole-8-carboxylate] | 4.45e-06 | 1.08e-05
